Measurements published in PMC9030691, “Toxicokinetics of β-Amanitin in Mice and In Vitro Drug–Drug Interaction Potential” (Pharmaceutics, 2022).
“Also recorded” adds a separate entry of the source.

Legend:
[1] = oral administration of dried powder of Amanita exitialis 60 mg/kg; cited from earlier work
Procedure: In addition, bile drainage caused more than a 70% reduction in plasma concentration of α- and β-amanitin and reduced hepatic toxicity following the oral administration of dried powder of Amanita exitialis (60 mg/kg). […] However, the toxicokinetics and tissue distribution of β-amanitin (Figure 1) upon ex ...

[2] = molecular target: T1, OAT1 (Homo sapiens, UniProt Q4U2R8); assay: Uptake of amanitins into HEK293-OAT1 cells; assay type: in vitro ADME; settings: 50 μM amanitin, 5 min, 37 °C, HBSS, 20 min preincubation, with and without probenecid, LC-HRMS, n = 3
T1 construct: expressed in transfected cells; host or cells: HEK293
T1 sequence (Q4U2R8 1-563): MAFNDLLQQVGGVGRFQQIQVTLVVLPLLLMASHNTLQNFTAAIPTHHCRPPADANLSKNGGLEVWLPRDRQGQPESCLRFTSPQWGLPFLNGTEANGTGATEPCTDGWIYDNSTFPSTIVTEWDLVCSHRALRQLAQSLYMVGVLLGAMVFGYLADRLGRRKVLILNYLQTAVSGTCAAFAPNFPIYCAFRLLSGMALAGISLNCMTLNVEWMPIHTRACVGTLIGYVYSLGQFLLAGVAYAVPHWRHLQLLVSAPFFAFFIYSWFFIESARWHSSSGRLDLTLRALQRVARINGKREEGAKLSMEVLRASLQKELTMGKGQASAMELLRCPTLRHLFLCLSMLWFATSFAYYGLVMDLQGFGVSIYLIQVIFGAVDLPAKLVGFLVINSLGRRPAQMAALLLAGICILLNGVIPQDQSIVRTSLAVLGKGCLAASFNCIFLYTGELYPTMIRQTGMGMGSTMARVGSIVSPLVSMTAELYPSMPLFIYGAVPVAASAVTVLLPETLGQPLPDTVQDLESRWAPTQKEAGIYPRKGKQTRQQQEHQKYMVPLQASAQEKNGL
Procedure: (§1) HEK293 cells overexpressing OCT2, MATE2-K, OAT1, OAT3, OATP1B1, and OATP1B3 transporters and HEK293-control cells were maintained in a humidified atmosphere of 5% CO2 at 37 °C in DMEM supplemented with 10% FBS and 5 mM non-essential amino acids. In the case of HEK293-OATP1B1, -OATP1B3, and MATE2-K cells, 2 mM sodium butyrate was added to the culture medium to enhance transport activity. Cells were seeded at 2 × 10^5 cells/well in poly-D-lysine-coated 24-well plates. After 24 h, the growth medium was discarded, and attached cells were washed with HBSS and preincubated for 20 min in HBSS at 37 °C. Stock solutions of α- and β-amanitin and representative inhibitors of transporters were diluted in HBSS to make the final concentration: cimetidine 1 mM (for OCT2), cimetidine 100 μM (for MATE2-K), probenecid 100 μM (for OAT1 and OAT3), and rifampin 100 μM (for OATP1B1 and OATP1B3). Uptake of 50 μM α- and β-amanitin was measured in the absence and presence of representative inhibitors for 5 min at 37 °C. Plates were placed immediately on ice, and cells were then washed twice with 1 mL of ice-cold HBSS. Residual HBSS was removed thoroughly from the plates. Subsequently, 150 μL of 80% methanol containing IS was added to each sample well, and the cell plates were shaken gently for 20 min at 4 °C. The remaining steps were the same as described for plasma sample preparation.

[3] = humans, cited from earlier work; for Concentration in the kidney of amatoxin-intoxicated patients / Concentration in the liver of amatoxin-intoxicated patients: 4 cases; for Plasma concentrations in amatoxin-intoxicated patients: detected in 11 of 43 patients exposed within 36 h; for Total amount excreted in urine in amatoxin-intoxicated patients: measured in 24 patients out of 35 cases
Procedure: In humans, the plasma and urinary concentrations of α- and β-amanitin were detected in cases of suspected amatoxin poisoning. Among 43 amatoxin-intoxicated patients, amanitin was detected in 11 patients who were exposed to amatoxin within 36 h. The plasma concentrations were 8–190 ng/mL for α-amanitin and 15.9–162 ng/mL for β-amanitin [26]. The total amount of α- and β-amanitin excreted in urine were measured in 24 patients out of 35 cases, and a highly variable amount of α- and β-amanitin was recovered from the urine: 0.03–3.29 mg for α-amanitin and 0.05–5.21 mg for β-amani ... || The intestinal tract, liver, and kidney are vulnerable to amanitin toxicity and also express drug-metabolizing enzymes and transporters that regulate the absorption, distribution, metabolism, and excretion of endogenous substrates and xenobiotics. […] Inhibition of CYP1A2, CYP2C8, CYP2C9, CYP2C19, and CYP3A4 at 100 μM in HLMs was almos ...

[4] = molecular target: MATE2-K (Homo sapiens, UniProt Q86VL8); assay: Uptake of amanitins into HEK293-MATE2-K cells; assay type: in vitro ADME; set-up: expressed in transfected cells; host or cells: HEK293; settings: 50 μM amanitin, 5 min, 37 °C, HBSS, 20 min preincubation, with and without cimetidine 100 μM, LC-HRMS, n = 3
Procedure: as §1

[5] = molecular target: T2, OATP1B1 (Homo sapiens, UniProt Q9Y6L6); assay: Uptake of amanitins into HEK293-OATP1B1 cells; assay type: in vitro ADME; settings: 50 μM amanitin, 5 min, 37 °C, HBSS, 20 min preincubation, with and without rifampin 100 μM, LC-HRMS, n = 3
T2 construct: expressed in transfected cells; host or cells: HEK293
Procedure: as §1

[6] = molecular target: T3, OAT3 (Homo sapiens, UniProt Q8TCC7); assay: Uptake of amanitins into HEK293-OAT3 cells; assay type: in vitro ADME; set-up: expressed in transfected cells; host or cells: HEK293; settings: 50 μM amanitin, 5 min, 37 °C, HBSS, 20 min preincubation, with and without probenecid, LC-HRMS, n = 3
T3 sequence (Q8TCC7 1-542): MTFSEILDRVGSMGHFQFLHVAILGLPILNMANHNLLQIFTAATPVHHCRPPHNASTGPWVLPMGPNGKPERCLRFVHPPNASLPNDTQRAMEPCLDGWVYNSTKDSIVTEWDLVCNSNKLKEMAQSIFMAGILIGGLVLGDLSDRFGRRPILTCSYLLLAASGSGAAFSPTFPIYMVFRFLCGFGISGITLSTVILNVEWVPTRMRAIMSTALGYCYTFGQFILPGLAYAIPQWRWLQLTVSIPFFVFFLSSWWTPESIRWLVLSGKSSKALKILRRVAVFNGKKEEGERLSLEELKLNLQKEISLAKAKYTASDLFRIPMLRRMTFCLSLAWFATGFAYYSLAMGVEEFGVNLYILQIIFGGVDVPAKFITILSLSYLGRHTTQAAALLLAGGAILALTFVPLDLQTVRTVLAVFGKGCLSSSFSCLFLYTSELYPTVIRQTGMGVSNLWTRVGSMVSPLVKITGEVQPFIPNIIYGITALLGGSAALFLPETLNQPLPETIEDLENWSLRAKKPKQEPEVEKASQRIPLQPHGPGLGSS
Procedure: as §1

[7] = molecular target: T4, OATP1B3 (Homo sapiens, UniProt Q9NPD5); assay: Uptake of amanitins into HEK293-OATP1B3 cells; assay type: in vitro ADME; settings: 50 μM amanitin, 5 min, 37 °C, HBSS, 20 min preincubation, with and without rifampin 100 μM, LC-HRMS, n = 3
T4 construct: expressed in transfected cells; host or cells: HEK293
Procedure: as §1

T2 sequence (Q9Y6L6 whole entry): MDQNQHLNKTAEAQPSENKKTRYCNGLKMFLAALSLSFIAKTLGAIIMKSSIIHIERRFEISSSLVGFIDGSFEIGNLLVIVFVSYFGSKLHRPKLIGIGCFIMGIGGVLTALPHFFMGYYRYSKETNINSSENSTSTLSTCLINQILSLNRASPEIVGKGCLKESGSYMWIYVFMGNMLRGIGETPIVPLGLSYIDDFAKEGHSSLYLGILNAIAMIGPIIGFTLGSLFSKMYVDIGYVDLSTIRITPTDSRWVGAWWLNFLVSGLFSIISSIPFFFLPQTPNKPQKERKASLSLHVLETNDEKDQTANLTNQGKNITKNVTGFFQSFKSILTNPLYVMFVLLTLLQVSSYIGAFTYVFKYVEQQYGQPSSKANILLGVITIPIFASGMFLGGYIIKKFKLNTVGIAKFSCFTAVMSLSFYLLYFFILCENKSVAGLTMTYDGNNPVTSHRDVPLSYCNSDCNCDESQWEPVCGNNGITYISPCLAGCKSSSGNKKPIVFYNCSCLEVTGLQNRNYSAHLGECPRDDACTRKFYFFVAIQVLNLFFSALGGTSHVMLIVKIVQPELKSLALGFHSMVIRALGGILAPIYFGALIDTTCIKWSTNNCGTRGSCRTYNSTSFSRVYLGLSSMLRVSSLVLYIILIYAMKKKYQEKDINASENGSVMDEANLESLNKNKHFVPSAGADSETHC
T4 sequence (Q9NPD5 whole entry): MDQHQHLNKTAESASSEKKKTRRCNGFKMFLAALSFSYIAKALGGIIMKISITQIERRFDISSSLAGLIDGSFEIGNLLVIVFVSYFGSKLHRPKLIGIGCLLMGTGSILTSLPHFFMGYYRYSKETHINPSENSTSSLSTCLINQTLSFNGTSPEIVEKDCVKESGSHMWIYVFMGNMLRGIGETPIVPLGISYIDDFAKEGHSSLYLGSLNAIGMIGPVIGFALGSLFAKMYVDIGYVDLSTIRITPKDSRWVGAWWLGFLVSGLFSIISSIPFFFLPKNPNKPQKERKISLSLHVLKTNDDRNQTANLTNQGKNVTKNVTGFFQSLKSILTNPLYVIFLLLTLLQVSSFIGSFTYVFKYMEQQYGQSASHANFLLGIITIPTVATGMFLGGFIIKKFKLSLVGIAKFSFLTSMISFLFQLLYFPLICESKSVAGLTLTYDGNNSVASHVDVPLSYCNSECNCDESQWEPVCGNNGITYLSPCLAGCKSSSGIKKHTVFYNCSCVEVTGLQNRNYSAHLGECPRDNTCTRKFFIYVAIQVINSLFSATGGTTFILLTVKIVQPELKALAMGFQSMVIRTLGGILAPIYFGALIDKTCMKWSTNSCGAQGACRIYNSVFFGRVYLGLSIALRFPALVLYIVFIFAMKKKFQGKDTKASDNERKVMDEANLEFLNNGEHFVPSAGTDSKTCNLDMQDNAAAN
MATE2-K, sequence (Q86VL8 1-566 isoform Q86VL8-3): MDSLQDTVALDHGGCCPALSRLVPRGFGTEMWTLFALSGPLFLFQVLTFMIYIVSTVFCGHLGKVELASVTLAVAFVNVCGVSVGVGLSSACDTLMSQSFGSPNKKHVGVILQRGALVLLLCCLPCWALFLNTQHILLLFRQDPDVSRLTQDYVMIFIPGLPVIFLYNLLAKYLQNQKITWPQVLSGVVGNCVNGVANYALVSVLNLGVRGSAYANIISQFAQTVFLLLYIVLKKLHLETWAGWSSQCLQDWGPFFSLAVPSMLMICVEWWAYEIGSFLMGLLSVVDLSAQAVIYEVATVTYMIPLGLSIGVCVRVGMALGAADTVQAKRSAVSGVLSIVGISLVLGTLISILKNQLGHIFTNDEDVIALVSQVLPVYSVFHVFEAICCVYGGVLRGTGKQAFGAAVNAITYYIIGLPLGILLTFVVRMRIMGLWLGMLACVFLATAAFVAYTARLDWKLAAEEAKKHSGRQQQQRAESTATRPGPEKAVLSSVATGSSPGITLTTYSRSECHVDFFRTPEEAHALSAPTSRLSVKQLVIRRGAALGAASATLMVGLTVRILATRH

Compound | Reduction in plasma concentration caused by bile drainage [1] [%] | Uptake into HEK293-OAT1 cells compared with HEK293 control cells (transport substrate) [2] | Concentration in the kidney of amatoxin-intoxicated patients [3] | Concentration in the liver of amatoxin-intoxicated patients [3] | Plasma concentrations in amatoxin-intoxicated patients [3] [ng/mL] | Total amount excreted in urine in amatoxin-intoxicated patients [3] [mg] | Uptake into HEK293-MATE2-K cells compared with HEK293 control cells (transport substrate) [4] | Uptake into HEK293-OATP1B1 cells compared with HEK293 control cells (transport substrate) [5] | Uptake into HEK293-OAT3 cells compared with HEK293 control cells (transport substrate) [6] | Uptake into HEK293-OATP1B3 cells compared with HEK293 control cells (transport substrate) [7]
CC[C@H](C)[C@@H]1NC(=O)CNC(=O)[C@@H]2Cc3c([nH]c4cc(O)ccc34)[S@+]([O-])C[C@H](NC(=O)CNC1=O)C(=O)N[C@@H](CC(=O)O)C(=O)N1C[C@H](O)C[C@H]1C(=O)N[C@@H]([C@@H](C)[C@@H](O)CO)C(=O)N2 [β-amanitin] | > 70 | not involved in the active transport | 1017–1391 ng/g kidney | 170.8–3298 ng/g liver | 15.9 to 162 | 0.05 to 5.21 | not involved in the active transport | significantly increased; also recorded: substrate | significantly greater uptake; also recorded: substrate | significantly increased; also recorded: substrate
α-amanitin [reference compound] | > 70 | not involved in the active transport | 122–1719 ng/g kidney | 10–19 ng/g liver | 8 to 190 | 0.03 to 3.29 | not involved in the active transport | significantly increased | but not α-amanitin, showed significantly greater uptake | significantly increased
